In one assay the target is amylin receptor. Nature of the assay: Amylin receptor binding assay, rat nucleus accumbens membranes. To be noted: 125I-rat amylin displacement. An excerpt: Dried glass fiber plates were combined with scintillant and counted on a multi-well Perkin Elmer scintillation counter, as well known in the art.
Assay [1] can be described thus: Body weight change in lean rats. To be noted: for body weight reduction: SC 125 nmol/kg (FIG. 17). Type of assay: in vivo. Here is the method:
Lean rats were administered a subcutaneous (SC) once weekly injection of test compound (125 nmol/kg) or vehicle. FIGS. 13A-13B provide the result of a multi-day food intake assays. The effect on 24-hour food intake was investigated for Cmpds 69, 73, 72, 70, and 74, using vehicle as control. […] In the case of some of the compounds, weight loss was still evident even after one week.
The effect on 24-hour food intake, as judged with SC injection (125 nmol/kg), was investigated for Cmpds 74, 76, 77 and 78.
Test animals (lean rats) were injected SC at 125 nmol/kg, and body weight corrected for vehicle (FIG. 19A) and cumulative food intake (FIG. 19B) were determined for 7-days. As shown in FIGS. 19A-19B, most compounds in the tested series provided weight loss which was still evident after 7-days.

Another assay can be described thus: Food intake in lean rats. Type of assay: in vivo. To be noted: for food intake: SC once weekly injection 125 nmol/kg. Here is the method: A variety of food intake assays are available to one of skill in the art. For example, in the so-called “home cage model” of food intake, subjects (e.g., rats) are maintained in their home cage, and food intake along with total weight of the subject is measured following injection of test compound. In the so-called “feeding patterns model” of food intake assay, subjects (e.g., rats) are habituated to a feeding chamber and to injections prior to testing. After test compound administration, the subjects are immediately placed into the feeding chamber, and food intake is automatically determined as a function of time (e.g., 1-min intervals). For both tests, the food is standard chow or any of a variety of chows (e.g., high fat) known in the art. In the so-called “mouse food intake” assay, a test compound may be tested for appetite suppression, or for an effect on body weight gain in diet-induced obesity (DIO) mice. In a typical mouse food intake assay, female NIH/Swiss mice (8-24 weeks old) are group housed with a 12:12 hour light:dark cycle with lights on at 0600. Water and a standard pelleted mouse chow diet are available ad libitum, except as noted. Animals are fasted starting at approximately 1500 hrs, I day prior to experiment. The morning of the experiment, animals are divided into experimental groups. In a typical study, n=4 cages with 3 mice/cage. At time=0 min, all animals are given an intraperitoneal injection of vehicle or compound, typically in an amount ranging from about 10 nmol/kg to 75 nmol/kg, and immediately given a pre-weighed amount (10-15 g) of the standard chow. Food is removed and weighed at various times, typically 30, 60, and 120 minutes, to determine the amount of food consumed. See e.g., Morley et al., 1994, Am. J. Physiol. 267:R178-R184). Food intake is calculated by subtracting the weight of the food remaining at the e.g. 30, 60, 120, 180 and/or 240 minute time point, from the weight of the food provided initially at time=0. Significant treatment effects are identified by ANOVA (p<0.05). Where a significant difference exists, test means are compared to the control mean using Dunnett's test (Prism v. 2.01, GraphPad Software Inc., San Diego, Calif.). For any test described herein, administration of test compound can be by any means, including injection (e.g., subcutaneous, intraperitoneal, and the like), oral, or other methods of administration known in the art.
FIGS. 13A-13B provide the result of a multi-day food intake assays. The effect on 24-hour food intake was investigated for Cmpds 69, 73, 72, 70, and 74, using vehicle as control. […] In the case of some of the compounds, weight loss was still evident even after one week. […]
As shown in FIGS. 19A-19B, most compounds in the tested series provided weight loss which was still evident after 7-days.

Assay [2] can be described thus: Body weight change in lean rats. Format: in vivo. To be noted: for body weight reduction: Cmpd 77 31.25-250 nmol/kg, Cmpd 79 250 nmol/kg (FIG. 18).
Assay [3] can be described thus: Body weight change in diet induced obese (DIO) rats. Type of assay: in vivo, DIO Sprague Dawley rats. To be noted: SC once a week 125 nmol/kg, four weeks. Here is the method:
The effect of Cmpd 14 on body weight was examined in male outbred diet-induced obese Sprague Dawley rats. Percent vehicle-corrected change in body weight was measured relative to PEGylated parent peptides alone and in combination. […]
Specifically, in this experiment the duration of action on food intake and change in body weight was compared for compounds having a single active peptide element (Cmpd 6 and Cmpd 7) relative to the combined dosing of these compounds, and further relative to LDDHC Cmpd 14, having the active peptide elements of Cmpds 6-7 separated by a 40 kDa PEG water-soluble polymeric spacer. […] In the combination dosing, each of Cmpd 6 and Cmpd 7 was administered at 32 nmol/kg. The test subjects were DIO rats (n=6/group, body weight baseline=478 g). […]
Plasma drug levels were determined by ELISA assay.
[…] The baseline body weight was 505 gm.

Setting [4] is: SC once weekly injection 125 nmol/kg.
Setting [5] is: Cmpd 77 31.25-250 nmol/kg, Cmpd 79 250 nmol/kg (FIG. 18).

Ends that are not written are not given here. Y‑shaped‑mPEG40KD = Y-shaped methoxy-PEG of 40 kDa attached to the Lys side chain; mPEG40KD = methoxy-PEG of 40 kDa

The IC50 is the concentration at which inhibition is half-maximal. A low value points to greater potency in that assay. In the case of `CC(C)C[C@H](NC(=O)[C@H](CC(N)=O)NC(=O)[C@H](CC(N)=O)NC(=O)[C@H](CO)NC(=O)[C@H](CO)NC(=O)[C@H](CCCNC(=N)N)NC(=O)[C@@H](NC(=O)[C@H](CC(C)C)NC(=O)[C@H](Cc1ccccc1)NC(=O)[C@H](CC(N)=O)NC(=O)[C@H](C)NC(=O)[C@H](CC(C)C)NC(=O)[C@H](CCCNC(=N)N)NC(=O)[C@H](CCC(N)=O)NC(=O)[C@@H](NC(=O)[C@H](C)NC(=O)[C@@H]1CSSC[C@H](NC(=O)[C@@H](N)CCCCN)C(=O)N[C@@H](CC(N)=O)C(=O)N[C@@H]([C@@H](C)O)C(=O)N[C@@H](C)C(=O)N[C@@H]([C@@H](C)O)C(=O)N1)[C@@H](C)O)C(C)C)C(=O)NCC(=O)N1CCC[C@H]1C(=O)N[C@H](C(=O)N[C@@H](CC(C)C)C(=O)N1CCC[C@H]1C(=O)N1CCC[C@H]1C(=O)N[C@H](C(=O)N[C@@H](CC(N)=O)C(=O)N[C@H](C(=O)NCC(=O)N[C@@H](CO)C(=O)N[C@@H](CC(N)=O)C(=O)N[C@H](C(=O)N[C@@H](Cc1ccc(O)cc1)C(N)=O)[C@@H](C)O)C(C)C)[C@@H](C)O)C(C)C` [Cmpd 49, reference compound], the IC50 on amylin receptor was found to be 0.1 nM.

In turn, “CNTATCATQRLANFLVRSSNNLGPVLPPTNVGSNTY [Cmpd 50, [des-Lys^1]-Cmpd 49]” showed an IC50 on amylin receptor of 0.42 nM. This IC50 lies about 4.2-fold higher than the previous one.

For “[K^21(mPEG40KD)]-Cmpd 51 (KCNTATCATQRLANFLVRSSK(mPEG 40 kDa)NLGPVLPPTNVGSNTY-NH2; cysteine pairing not given here) [Cmpd 69]”, the “body weight” value in assay [1] (setting [4]) is recorded as “efficacious”. Besides, the “food intake” value in the assay “Food intake in lean rats” was “efficacious”.

For the molecule “[K^21(mPEG40KD)]-Cmpd 52 (CNTATCATQRLANFLVRSSK(mPEG 40 kDa)NLGPVLPPTNVGSNTY-NH2; cysteine pairing not given here) [Cmpd 70]”, the “body weight” value in assay [1] (setting [4]) is “efficacious”. Moreover, the “food intake” value in the assay “Food intake in lean rats” is on record as “efficacious”.

As to “[K^21(mPEG40KD)]-Cmpd 59 (CNTATCATQRLANFLVHSSK(mPEG 40 kDa)NFGPILPPTNVGSNTY-NH2; cysteine pairing not given here) [Cmpd 76]”, in assay [1], the “body weight reduction” value is “at least as efficacious as Cmpd 74”. Moreover, in “Food intake in lean rats” (SC 125 nmol/kg (FIG. 17)), the “food intake reduction” value was “at least as efficacious as Cmpd 74”.

“[K^26(Y-shaped-mPEG40KD)]-Cmpd 53 (KCNTATCATQRLANFLVRSSNNLGPK(Y‑shaped‑mPEG40KD)LPPTNVGSNTY-NH2; cysteine pairing not given here) [Cmpd 75]” yielded an IC50 at amylin receptor of 470 nM. Moreover, in assay [1] (single SC dose, y-branched vs linear PEG), the “body weight” value is given as “not as efficacious as the linear pegylated version, Cmpd 71”.

Take “[K^26(Y-shaped-mPEG40KD)]-Cmpd 60 (CNTATCATQRLANFLVHSSNNFGPK(Y‑shaped‑mPEG40KD)LPPTNVGSNTY-NH2; cysteine pairing not given here) [Cmpd 79]”: the “food intake reduction” value in “Food intake in lean rats” (setting [5]) is “not as efficacious as the linear pegylated version, Cmpd 77”. The “body weight reduction” value in assay [2] is “not as efficacious as the linear pegylated version, Cmpd 77”.

On to “[K^26(mPEG40KD)]-Cmpd 53 (KCNTATCATQRLANFLVRSSNNLGPK(mPEG40KD)LPPTNVGSNTY-NH2; cysteine pairing not given here) [Cmpd 71]”, for which, at amylin receptor, the IC50 was determined as 66 nM. Further, the “weight loss” value in assay [3] is “not as efficacious as infused Cmpd 49”. The “food intake, dose response” value in “Food intake in lean rats” (12-250 nmol/kg) is “reduced body weight and food intake in a dose dependent fashion”. Moreover, in assay [2] (12-250 nmol/kg), the “body weight, dose response” value was “reduced body weight and food intake in a dose dependent fashion”.

With “[K^26(mPEG40KD)]-Cmpd 54 (CNTATCATQRLANFLVRSSNNLGPK(mPEG40KD)LPPTNVGSNTY-NH2; cysteine pairing not given here) [Cmpd 72]”, in assay [1] (setting [4]), the “body weight” value is “efficacious”. In addition, the “food intake” value in “Food intake in lean rats” was “efficacious”.

Consider “[K^26(mPEG40KD)]-Cmpd 60 (CNTATCATQRLANFLVHSSNNFGPK(mPEG40KD)LPPTNVGSNTY-NH2; cysteine pairing not given here) [Cmpd 77]”, for which the “body weight reduction” value is recorded as “at least as efficacious as Cmpd 74” in assay [1] and “dose dependent efficacy” in assay [2]. The results for the “food intake reduction” value in the assay “Food intake in lean rats” (setting [5]) and in “Food intake in lean rats” (SC 125 nmol/kg (FIG. 17)) were “dose dependent efficacy” and “at least as efficacious as Cmpd 74”, respectively.

Turning to “[K^31(mPEG40KD)]-Cmpd 55 (KCNTATCATQRLANFLVRSSNNLGPVLPPTK(mPEG40KD)VGSNTY-NH2; cysteine pairing not given here) [Cmpd 73]”, in assay [1] (setting [4]), the “body weight” value was “efficacious”. In addition, the “food intake” value in the assay “Food intake in lean rats” is “efficacious”.

Consider “[K^31(mPEG40KD)]-Cmpd 56 (CNTATCATQRLANFLVRSSNNLGPVLPPTK(mPEG40KD)VGSNTY-NH2; cysteine pairing not given here) [Cmpd 74]”, for which, in assay [1] (setting [4]), the “body weight” value is “efficacious”. The “food intake” value in the assay “Food intake in lean rats” is recorded as “efficacious”.

As to “[K^31(mPEG40KD)]-Cmpd 61 (CNTATCATQRLANFLVHSSNNFGPILPPTK(mPEG40KD)VGSNTY-NH2; cysteine pairing not given here) [Cmpd 78]”, in assay [1], the “body weight reduction” value was “at least as efficacious as Cmpd 74”. Besides, the “food intake reduction” value in the assay “Food intake in lean rats” (SC 125 nmol/kg (FIG. 17)) is on record as “at least as efficacious as Cmpd 74”.

For “mPEG40KD-Cmpd 50 (CNTATCATQRLANFLVRSSNNLGPVLPPTNVGSNTY-NH2; cysteine pairing not given here; also: mPEG40KD attached, site not given here) [Cmpd 68]”, on amylin receptor, the IC50 amounted to 78 nM.

Source of the values: US20140221282A1, “LONG DURATION DUAL HORMONE CONJUGATES” (priority 2011, published 2014).
